Measurements from US20260125375A1 (Pfizer Inc., priority 2022, published 2026).

Experiments:
CBL-B (residues 36-427) = target: T1, CBL-B (residues 36-427) (Homo sapiens, UniProt Q13191); test: Ligand Displacement Assay (LDA), HTRF competitive binding against BODIPY-labeled fluorescent tracer, CBL-B; conditions: geometric mean of the number of tests, read-out: CBL-B Ki (nM) GMean
T1 construct: Purified CBL-B (residues 36-427) and C-CBL (residues 46-435) proteins from baculovirus-infected insect cells; made in house; host or cells: baculovirus-infected insect cells
Outline: (§1)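 Insect-cell (baculovirus) protein, N-term AviTag biotinylated via BirA, captured by SA-Tb; BODIPY tracer, KD measured per protein. 3-fold serial dilutions, duplicate, […], 2% DMSO final. Ki (nM) = geomean of runs.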

C-CBL (residues 46-435) = target: T2, C-CBL (residues 46-435) (Homo sapiens, UniProt P22681); test: Ligand Displacement Assay (LDA), HTRF competitive binding against BODIPY-labeled fluorescent tracer, C-CBL; conditions: geometric mean of the number of tests, read-out: C-CBL Ki (nM) GMean
T2 construct: Purified CBL-B (residues 36-427) and C-CBL (residues 46-435) proteins from baculovirus-infected insect cells; made in house; host or cells: baculovirus-infected insect cells
T2 sequence (P22681 46-435): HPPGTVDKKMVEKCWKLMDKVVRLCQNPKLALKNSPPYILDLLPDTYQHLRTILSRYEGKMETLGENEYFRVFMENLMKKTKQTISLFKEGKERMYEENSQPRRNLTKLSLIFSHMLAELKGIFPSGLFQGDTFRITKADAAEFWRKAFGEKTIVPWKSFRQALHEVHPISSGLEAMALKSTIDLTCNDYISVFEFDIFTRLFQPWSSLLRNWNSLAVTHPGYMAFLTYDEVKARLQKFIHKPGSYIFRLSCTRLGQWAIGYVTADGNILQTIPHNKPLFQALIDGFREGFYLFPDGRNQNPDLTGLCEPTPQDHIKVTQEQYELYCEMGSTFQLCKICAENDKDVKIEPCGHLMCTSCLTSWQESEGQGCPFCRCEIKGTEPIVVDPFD
Outline: as §1

WT CBL-B (36-427) = target: T3, WT CBL-B (36-427) (Homo sapiens, UniProt Q13191); test: Surface Plasmon Resonance (SPR) assay, binding affinity and kinetics, CBL-B; conditions: SPR at 10° C., biotinylated WT CBL-B (36-427) on streptavidin chip; geometric mean; read-out: CBL-B SPR Kd (nM) GMean
T3 construct: N-terminal biotinylated WT CBL-B (36-427) and C-CBL (46-435) were captured on a streptavidin (SA) coated sensor chip
Outline: (§2)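 Biotinylated WT CBL-B (36-427) or C-CBL (46-435) captured on streptavidin chip (~5000–6000 RU); binding at 10° C in HEPES buffer pH 7.2 with 2% DMSO. Multi-cycle: 2-fold, 10-point series from 10 or 100 μM, 90 s association. Single-cycle: 3-fold, 6-point, 0.001–1 μM, 120 s association, >5400 s dissociation.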

C-CBL (46-435) = target: T4, C-CBL (46-435) (Homo sapiens, UniProt P22681); test: Surface Plasmon Resonance (SPR) assay, binding affinity and kinetics, C-CBL; conditions: SPR at 10° C., biotinylated C-CBL (46-435) on streptavidin chip; geometric mean; read-out: C-CBL SPR Kd (nM) GMean
T4 construct: N-terminal biotinylated WT CBL-B (36-427) and C-CBL (46-435) were captured on a streptavidin (SA) coated sensor chip
T4 sequence (P22681 46-435): T2 sequence (P22681 46-435)
Outline: as §2

SMILES | Ki (CBL-B (residues 36-427)) | Ki (C-CBL (residues 46-435)) | Kd (WT CBL-B (36-427)) | Kd (C-CBL (46-435))
CC(N)c1nc(C(F)(F)F)cc2c(-c3cccc(C4(Cc5nncn5C)COC4)c3)n[nH]c12 (single isomer, unassigned) [Example K17, (1ξ)-1-[3-(3-{3-[(4-methyl-4H-1,2,4-triazol-3-yl)methyl]oxetan-3-yl}phenyl)-5-(trifluoromethyl)-1H-pyrazolo[3,4-c]pyridin-7-yl]ethan-1-amine] | 44.6 nM | 145 nM | 27.3 nM | 256 nM
Cn1cnnc1[C@@H](c1cccc(-c2n[nH]c3c(C4CCCCN4)nc(C(F)(F)F)cc23)c1)C1CCC1 (single isomer, unassigned) [Example L1] | 74.2 nM | 439 nM | 40.7 nM | 697 nM
Cn1cnnc1[C@@H](c1cccc(-c2n[nH]c3c(C4CCCCN4)nc(C(F)(F)F)cc23)c1)C1CCC1 (single isomer, unassigned) [Example L2] | 90.1 nM | 721 nM | 30 nM | 307 nM
CC(=O)NCC(C)c1nc(C(F)(F)F)cc2c(-c3cccc([C@H](c4nncn4C)C4CCC4)c3)n[nH]c12 (single isomer, unassigned) [Example M4] | 20.5 nM | 157 nM | 10.3 nM | 250 nM
CC(=O)NCC(C)c1nc(C(F)(F)F)cc2c(-c3cccc([C@H](c4nncn4C)C4CCC4)c3)n[nH]c12 (single isomer, unassigned) [Example M5] | 52.5 nM | 527 nM | 14.2 nM | 741 nM
CN1CCC(Oc2nc(C(F)(F)F)cc3c(-c4cccc(C5(Cc6nncn6C)COC5)c4)n[nH]c23)C1 (stereo in doubt) [Example J2, 7-{[(3S)-1-methylpyrrolidin-3-yl]oxy}-3-(3-{3-[(4-methyl-4H-1,2,4-triazol-3-yl)methyl]oxetan-3-yl}phenyl)-5-(trifluoromethyl)-1H-pyrazolo[3,4-c]pyridine] | 19.1 nM | 76.6 nM | 4.8 nM | 37.6 nM
CNc1nc2[nH]nc(-c3cccc([C@H](c4nncn4C)C4CCC4)c3)c2cc1C(F)(F)F [E2, 3-{3-[(R)-cyclobutyl(4-methyl-4H-1,2,4-triazol-3-yl)methyl]phenyl}-N-methyl-5-(trifluoromethyl)-1H-pyrazolo[3,4-b]pyridin-6-amine] | 244 nM | 2650 nM | 53.9 nM | 1730 nM
Cn1cnnc1[C@@H](c1cccc(-c2n[nH]c3cnc(Cl)cc23)c1)C1CCC1 [Example A3, 5-chloro-3-{3-[(R)-cyclobutyl(4-methyl-4H-1,2,4-triazol-3-yl)methyl]phenyl}-1H-pyrazolo[3,4-c]pyridine] | 31.1 nM | 362 nM | 12.9 nM | 301 nM
Cc1cc2c(-c3cccc([C@H](c4nncn4C)C4CCC4)c3)n[nH]c2cn1 [Example A6, 3-{3-[(R)-cyclobutyl(4-methyl-4H-1,2,4-triazol-3-yl)methyl]phenyl}-5-methyl-1H-pyrazolo[3,4-c]pyridine] | 51.5 nM | 525 nM | 21.4 nM | 882 nM
Cc1nccc2c(-c3cccc([C@H](c4nncn4C)C4CCC4)c3)n[nH]c12 [Example A7, 3-{3-[(R)-cyclobutyl(4-methyl-4H-1,2,4-triazol-3-yl)methyl]phenyl}-7-methyl-1H-pyrazolo[3,4-c]pyridine] | 83.8 nM | 767 nM | 31 nM | 1300 nM
Cn1cnnc1CC1(c2cccc(-c3n[nH]c4cnc(C5CC5)cc34)c2)COC1 [Example B4, 5-cyclopropyl-3-(3-{3-[(4-methyl-4H-1,2,4-triazol-3-yl)methyl]oxetan-3-yl}phenyl)-1H-pyrazolo[3,4-c]pyridine] | 73.9 nM | 254 nM | 58.7 nM | 578 nM
Cn1cnnc1CC1(c2cccc(-c3n[nH]c4ccc(Cl)cc34)c2)COC1 [Example B7, 5-chloro-3-(3-{3-[(4-methyl-4H-1,2,4-triazol-3-yl)methyl]oxetan-3-yl}phenyl)-1H-indazole] | 25.1 nM | 150 nM | 7.2 nM | 108 nM
Cn1cnnc1CC1(c2cccc(-c3n[nH]c4cnc(Cl)cc34)c2)COC1 [Example B8, 5-chloro-3-(3-{3-[(4-methyl-4H-1,2,4-triazol-3-yl)methyl]oxetan-3-yl}phenyl)-1H-pyrazolo[3,4-c]pyridine] | 28.6 nM | 142 nM | 15.9 nM | 180 nM
Cn1cnnc1CC1(c2cccc(-c3n[nH]c4cnc(OC(F)(F)F)cc34)c2)COC1 [Example B9, 3-(3-{3-[(4-methyl-4H-1,2,4-triazol-3-yl)methyl]oxetan-3-yl}phenyl)-5-(trifluoromethoxy)-1H-pyrazolo[3,4-c]pyridine] | 74.5 nM | 238 nM | 32.5 nM | 244 nM
Cn1cnnc1CC1(c2cccc(-c3n[nH]c4cnc(OC(F)F)cc34)c2)COC1 [Example B10, 5-(difluoromethoxy)-3-(3-{3-[(4-methyl-4H-1,2,4-triazol-3-yl)methyl]oxetan-3-yl}phenyl)-1H-pyrazolo[3,4-c]pyridine] | 57.8 nM | 187 nM | 22.2 nM | 141 nM
Cn1cnnc1CC1(c2cccc(-c3n[nH]c4c(CN[C@H]5CCOC5)nc(C(F)(F)F)cc34)c2)COC1 [Example C50] | 24.7 nM | 90 nM | 14.5 nM | 145 nM
CN(C)Cc1nc(C(F)(F)F)cc2c(-c3cccc(C4(Cc5nncn5C)COC4)c3)n[nH]c12 [Example C51, N,N-dimethyl-1-[3-(3-{3-[(4-methyl-4H-1,2,4-triazol-3-yl)methyl]oxetan-3-yl}phenyl)-5-(trifluoromethyl)-1H-pyrazolo[3,4-c]pyridin-7-yl]methanamine] | 22 nM | 115 nM | 17.8 nM | 182 nM
CNCc1nc(C(F)(F)F)cc2c(-c3cccc(C4(Cc5nncn5C)COC4)c3)n[nH]c12 [Example C52, N-methyl-1-[3-(3-{3-[(4-methyl-4H-1,2,4-triazol-3-yl)methyl]oxetan-3-yl}phenyl)-5-(trifluoromethyl)-1H-pyrazolo[3,4-c]pyridin-7-yl]methanamine] | 32.9 nM | 134 nM | 9.3 nM | 124 nM
CC(C)NCc1nc(C(F)(F)F)cc2c(-c3cccc(C4(Cc5nncn5C)COC4)c3)n[nH]c12 [Example C53, N-{[3-(3-{3-[(4-methyl-4H-1,2,4-triazol-3-yl)methyl]oxetan-3-yl}phenyl)-5-(trifluoromethyl)-1H-pyrazolo[3,4-c]pyridin-7-yl]methyl}propan-2-amine] | 66.6 nM | 312 nM | 61.8 nM | 747 nM
Cn1cnnc1CC1(c2cccc(-c3n[nH]c4c(CNC5CCCC5)nc(C(F)(F)F)cc34)c2)COC1 [Example C54, N-{[3-(3-{3-[(4-methyl-4H-1,2,4-triazol-3-yl)methyl]oxetan-3-yl}phenyl)-5-(trifluoromethyl)-1H-pyrazolo[3,4-c]pyridin-7-yl]methyl}cyclopentanamine] | 10.7 nM | 49.4 nM | 4.5 nM | 93.2 nM
Cn1cnnc1CC1(c2cccc(-c3n[nH]c4c(CN5CCNC(=O)C5)nc(C(F)(F)F)cc34)c2)COC1 [Example C55, 4-{[3-(3-{3-[(4-methyl-4H-1,2,4-triazol-3-yl)methyl]oxetan-3-yl}phenyl)-5-(trifluoromethyl)-1H-pyrazolo[3,4-c]pyridin-7-yl]methyl}piperazin-2-one] | 21.2 nM | 65.3 nM | 3 nM | 27.6 nM
CCNCc1nc(C(F)(F)F)cc2c(-c3cccc(C4(Cc5nncn5C)COC4)c3)n[nH]c12 [Example C56, N-{[3-(3-{3-[(4-methyl-4H-1,2,4-triazol-3-yl)methyl]oxetan-3-yl}phenyl)-5-(trifluoromethyl)-1H-pyrazolo[3,4-c]pyridin-7-yl]methyl}ethanamine] | 43.6 nM | 201 nM | 11 nM | 150 nM
